Test results published in patent US20110294736A1, “COMPOUNDS AND METHODS FOR THE TREATMENT OF AUTOIMMUNE AND INFLAMMATORY DISEASE” (THE PROVOST, FELLOWS AND SCHOLARS OF THE HOLY AND UNDIVIDED …, priority 2008, published 2011).

How the values were obtained:
[1] = system: experimental autoimmune encephalomyelitis (EAE) in C57BL/6 mice; assay: EAE induced with MOG35-55/CFA and pertussis toxin, clinical score and body weight; type: in vivo
Protocol: EAE was induced in C57BL/6 mice by subcutaneous (s.c) injection with 150 μg of MOG35-55 in CFA supplemented with 4 mg/ml H37 Ra M. tuberculosis on day 0. All mice were injected intra-peritoneally (i.p) with Pertussis toxin (PT) on days 0 and 2. One group of mice were untreated and the second group were given Tri-DAP (100 μg/mouse) on day 0 in MOG/CFA emulsion and again on days 1, 2 and every 2 days thereafter. Clinical scores were assessed daily and body weights were recorded. Disease severity was graded as follows: grade 0: normal, grade 1: limp tail, grade 2: wobbly gait; grade 3: hind limb weakness; grade 4: hind limb paralysis; grade 5: tetraparalysis/death. † indicates control mice were sacrificed due to severity of EAE disease.

BMDC = assay: EBI3 and IL-27p28 mRNA in BMDC pretreated with MAPK/MEK1/2 inhibitors, then TriDAP and LPS or CpG; type: cell-based, murine
Protocol: BMDC (1×10^6) were pretreated with either the MAPK inhibitor, SB203580 ([…]) or the MEK1/2 inhibitor, U0126 ([…]) for 30 minutes prior to stimulation with TriDAP […] or medium alone. After 24 hours the cells were then stimulated with LPS (lipopolysaccharide) (100 ng/ml), CpG ([…]) or medium alone. EBI3 and IL-27p28 mRNA were evaluated by real time PCR normalized to 18S rRNA. Data are shown as fold induction over DC cultured in medium only (FIG. 9 (a) and FIG. 9 (b)).

Bone marrow derived DC = assay: EBI3 and IL-27p28 mRNA in bone marrow derived DC stimulated with TLR agonists; type: cell-based, murine; conditions: Tri-DAP 100 μg/ml 24 hours before LPS 10 ng/ml for 6 hours
Protocol: Bone marrow derived DC (1×10^6 cell/ml) were pretreated with Tri-DAP (100 μg/ml) for 24 hours prior to stimulation with the TLR agonists LPS (10 ng/ml) and CpG (5 μg/ml), and the MOG35-55 peptide (20 μg/ml) or medium alone (control) for 6 hours. EBI3 (FIG. 8 (a)) and IL-27p28 (FIG. 8 (b)) mRNA were evaluated by real time PCR normalized to 18S rRNA. Data are shown as fold induction over DC cultured in medium only.

[2] = system: antigen presenting cells (PECs) activating MOG-specific T cells; assay: IFN-γ of MOG-specific T cells cultured with irradiated PECs of treated mice as antigen presenting cells; type: in vivo; conditions: TriDAP 100 μg/mouse/day i.p. 5 days vs PBS; MOG 20 μg/ml; 72 hours
Protocol: Mice were treated with either PBS or TriDAP (100 μg/mouse/day i.p.) for 5 days. Peritoneal exudate stimulator cells (PECs) were irradiated and used as antigen presenting cells (APC) for MOG-specific T cells. T cells from mice immunized with MOG (Myelin oligodendrocyte glycoprotein) and CFA (1×10^6/ml) were culture with PECs (1×10^6/ml) and MOG (20 μg/ml). Supernatants were collected after 72 hours and IFN-γ concentrations were quantified by ELISA.

[3] = system: PLP-specific IL-17 and IFN-γ; assay: PLP-specific IL-17 and IFN-γ (ELISA) of restimulated lymph node or spleen cells, relapsing-remitting EAE model; type: in vivo; conditions: SJL mice, TriDAP 100 μg/mouse every 2 days from day 12, day 26, PLP 1-25 μg/ml
Protocol: EAE was induced in SJL mice by immunization with […] (PLP) in complete Freund's adjuvant (CFA) followed by pertussis toxin (PT). Mice were treated with PBS (control) or TriDAP (100 μg/mouse) every 2 days from day 12. Mice were sacrificed on day 26, and lymph node or spleen cells restimulated in vitro with PLP (1-25 μg/ml). After 3 days, IL-17 and IFNγ production in supernatants were quantified by ELISA.

Spleen cells = assay: TLR agonist induced cytokines (ELISA) of spleen cells from treated mice; type: in vivo; conditions: TriDAP 100 μg/mouse/day i.p. 5 days vs PBS; LPS, CpG or Pam3Csk; 24 hours
Protocol: Mice treated with either PBS or TriDAP (100 μg/mouse/day i.p.) for 5 days. Spleen cells ([…]; 1×10^6/ml) were stimulated with medium alone (control), or with a Toll-like Receptor agonist selected from the following: the TLR4 agonist LPS (lipopolysaccharide) (100 ng/ml), the TLR9 agonist CpG (5 μg/ml), or the TL2 agonist Pam3Csk (500 ng/ml). Supernatants were collected after 24 hours and cytokine concentrations were quantified by ELISA.

EAE in SJL mice = assay: SJL mouse relapsing-remitting EAE model (PLP/CFA, PT), clinical score; type: in vivo; conditions: TriDAP 100 μg/mouse every 2 days from day 12, vs PBS, mean of 5-6 mice per group
Description: EAE (experimental autoimmune encephalomyelitis) was induced in SJL mice by immunization with […] (PLP) in complete Freund's adjuvant (CFA) followed by Bordetella pertussis toxin (PT). SJL mice were developed by James Lambert at The Jackson Laboratory in 1955 from three different sources of Swiss Webster mice. The strain is characterized by its susceptibility to experimental autoimmune encephalomyelitis (EAE) for multiple sclerosis research, and therefore provides an improved model (over the MOG (myelin oligodendrocyte glycoprotein) model) for assessing the therapeutic potential of compounds. Mice were treated with PBS (control) or TriDAP (100 μg/mouse) every 2 days from day 12. Clinical scores were assessed daily and body weights were recorded. Disease severity was graded as follows: grade 0: normal, grade 1: limp tail, grade 2: wobbly gait; grade 3: hind limb weakness; grade 4: hind limb paralysis; grade 5: tetraparalysis/death. † indicates control mice were sacrificed due to severity of EAE disease.

[4] = U0126 (5 mM) 30 minutes before TriDAP, LPS 100 ng/ml after 24 hours

## C[C@H](N)C(=O)N[C@H](CCC(=O)N[C@@H](CCC[C@@H](N)C(=O)O)C(=O)O)C(=O)O [Tri-DAP, L-alanyl-γ-D-glutamyl-meso-diaminopimelic acid]
[1]; C57BL/6 EAE mice, Tri-DAP 100 μg/mouse vs untreated control
  weight loss: dramatic weight loss in the control mice when compared to the Tri-DAP treated mice
[1]; C57BL/6 mice, Tri-DAP 100 μg/mouse day 0 in MOG/CFA emulsion, days 1, 2 and every 2 days, untreated mice 5-6 days
  first clinical signs of EAE disease: 11 days post induction
[1]; C57BL/6 mice, Tri-DAP 100 μg/mouse, untreated peaked at 3.5-4 by day 12
  severity of EAE disease (clinical score): lower than that observed in the untreated control mice
BMDC; [4]
  Tri-DAP synergy with LPS for EBI3 gene expression under inhibition of ERK: greatly enhances
  Tri-DAP synergy with LPS for IL-27p28 gene expression under inhibition of ERK: greatly enhances
BMDC; dendritic cells, ERK inhibitor added
  Tri-DAP induced or Tri-DAP and TLR agonist induced IL-27 production on addition of an ERK inhibitor: significantly enhances
Bone marrow derived DC
  LPS induced EBI3 gene expression: enhancement
  LPS induced IL-27p28 gene expression: enhancement
[2]
  IFN-gamma secreted by antigen-specific T cells stimulated with APC of treated mice: less
[3]; spleen and lymph node cells
  PLP-specific IL-17 levels: on-going reduction
[3]; spleen cells
  PLP-specific IFN-gamma levels: on-going reduction
Spleen cells
  IL-10 secreted by spleen cells after re-stimulation with TLR agonists: higher concentrations
  IL-27 secreted by spleen cells after re-stimulation with TLR agonists: higher concentrations
  TGF-beta secreted by spleen cells after re-stimulation with TLR agonists: higher concentrations
EAE in SJL mice
  clinical scores: reduction
